Source: ChEMBL document CHEMBL3352739, “Comparative in vivo evaluation of polyalkoxy substituted 4H-chromenes and oxa-podophyllotoxins as microtubule destabilizing agents in the phenotypic sea urchin embryo assay” (2014)

What was measured:
MDA-MB-435 = experiment: Growth inhibition of human MDA-MB-435 cells after 48 hrs by sulforhodamine B assay; type: functional; conditions: MDA-MB-435, 48 h
[1] = Growth inhibition of human UO31 cells after 48 hrs by sulforhodamine B assay; type: functional; conditions: UO-31, 48 h
[2] = Growth inhibition of human HOP92 cells after 48 hrs by sulforhodamine B assay; type: functional; conditions: HOP-92, 48 h
[3] = Growth inhibition of human HCT15 cells after 48 hrs by sulforhodamine B assay; type: functional; conditions: HCT-15, 48 h
MCF7 = experiment: Growth inhibition of human MCF7 cells after 48 hrs by sulforhodamine B assay; type: functional; conditions: MCF7, 48 h
Paracentrotus lividus [4] = experiment: Antimitotic microtubule destabilizing activity in Paracentrotus lividus L embryos assessed as induction of cleavage alteration
786-0 = experiment: Growth inhibition of human 786-0 cells after 48 hrs by sulforhodamine B assay; type: functional; conditions: 786-0, 48 h
[5] = Growth inhibition of human MOLT4 cells after 48 hrs by sulforhodamine B assay; type: functional; conditions: MOLT-4, 48 h
Paracentrotus lividus [6] = experiment: Antimitotic microtubule destabilizing activity in Paracentrotus lividus L embryos assessed as induction of embryo spinning
MDA-MB-468 = experiment: Growth inhibition of human MDA-MB-468 cells after 48 hrs by sulforhodamine B assay; type: functional; conditions: MDA-MB-468, 48 h
M14 = experiment: Growth inhibition of human M14 cells after 48 hrs by sulforhodamine B assay; type: functional; conditions: M14, 48 h
[7] = Growth inhibition of human COLO205 cells after 48 hrs by sulforhodamine B assay; type: functional; conditions: COLO 205, 48 h
SNB-75 = experiment: Growth inhibition of human SNB75 cells after 48 hrs by sulforhodamine B assay; type: functional; conditions: SNB-75, 48 h
[8] = Growth inhibition of human EKVX cells after 48 hrs by sulforhodamine B assay; type: functional
A549 = experiment: Growth inhibition of human A549/ATCC cells after 48 hrs by sulforhodamine B assay; type: functional; conditions: A549, 48 h
SF-268 = experiment: Growth inhibition of human SF268 cells after 48 hrs by sulforhodamine B assay; type: functional; conditions: SF-268, 48 h
[9] = Cytotoxicity against human NCI60 cells; type: functional
CCRF-CEM = experiment: Growth inhibition of human CCRF-CEM cells after 48 hrs by sulforhodamine B assay; type: functional
NCI-H460 = experiment: Growth inhibition of human NCI-H460 cells after 48 hrs by sulforhodamine B assay; type: functional; conditions: NCI-H460, 48 h
NCI-H226 = experiment: Growth inhibition of human NCI-H226 cells after 48 hrs by sulforhodamine B assay; type: functional; conditions: NCI-H226, 48 h
Paracentrotus lividus [10] = experiment: Antimitotic microtubule destabilizing activity in Paracentrotus lividus L embryos assessed as induction of cleavage arrest
K562 = experiment: Growth inhibition of human K562 cells after 48 hrs by sulforhodamine B assay; type: functional; conditions: K562, 48 h
[11] = Growth inhibition of human SF539 cells after 48 hrs by sulforhodamine B assay; type: functional; conditions: SF-539, 48 h
[12] = Growth inhibition of human OVCAR4 cells after 48 hrs by sulforhodamine B assay; type: functional; conditions: OVCAR-4, 48 h
[13] = Growth inhibition of human OVCAR3 cells after 48 hrs by sulforhodamine B assay; type: functional; conditions: OVCAR-3, 48 h
[14] = Growth inhibition of human RXF393 cells after 48 hrs by sulforhodamine B assay; type: functional; conditions: RXF 393, 48 h
DU-145 = experiment: Growth inhibition of human DU145 cells after 48 hrs by sulforhodamine B assay; type: functional; conditions: DU-145, 48 h
IGROV-1 = experiment: Growth inhibition of human IGROV1 cells after 48 hrs by sulforhodamine B assay; type: functional; conditions: IGROV-1, 48 h
[15] = Growth inhibition of human HCT116 cells after 48 hrs by sulforhodamine B assay; type: functional; conditions: HCT-116, 48 h
[16] = Growth inhibition of human Hs 578T cells after 48 hrs by sulforhodamine B assay; type: functional
NCI-H23 = experiment: Growth inhibition of human NCI-H23 cells after 48 hrs by sulforhodamine B assay; type: functional; conditions: NCI-H23, 48 h
[17] = Growth inhibition of human HCC2998 cells after 48 hrs by sulforhodamine B assay; type: functional; conditions: HCC 2998, 48 h
KM12 = experiment: Growth inhibition of human KM12 cells after 48 hrs by sulforhodamine B assay; type: functional; conditions: KM12, 48 h
[18] = Growth inhibition of human UACC62 cells after 48 hrs by sulforhodamine B assay; type: functional; conditions: UACC-62, 48 h
[19] = Growth inhibition of human BT549 cells after 48 hrs by sulforhodamine B assay; type: functional; conditions: BT-549, 48 h
HOP-62 = experiment: Growth inhibition of human HOP62 cells after 48 hrs by sulforhodamine B assay; type: functional; conditions: HOP-62, 48 h
CAKI-1 = experiment: Growth inhibition of human CAKI-1 cells after 48 hrs by sulforhodamine B assay; type: functional; conditions: CAKI-1, 48 h
MDA-MB-231 = experiment: Growth inhibition of human MDA-MB-231 cells after 48 hrs by sulforhodamine B assay; type: functional; conditions: MDA-MB-231, 48 h
SK-OV-3 = experiment: Growth inhibition of human SKOV3 cells after 48 hrs by sulforhodamine B assay; type: functional; conditions: SK-OV-3, 48 h
[20] = Growth inhibition of human UACC257 cells after 48 hrs by sulforhodamine B assay; type: functional; conditions: UACC-257, 48 h
U-251 = experiment: Growth inhibition of human U251 cells after 48 hrs by sulforhodamine B assay; type: functional; conditions: U-251, 48 h
[21] = Growth inhibition of human PC3 cells after 48 hrs by sulforhodamine B assay; type: functional; conditions: PC-3, 48 h
[22] = Growth inhibition of human H1299 cells after 48 hrs by sulforhodamine B assay; type: functional; conditions: NCI-H1299, 48 h
[23] = Growth inhibition of human LOXIMVI cells after 48 hrs by sulforhodamine B assay; type: functional; conditions: LOX IMVI
SK-MEL-2 = experiment: Growth inhibition of human SK-MEL-2 cells after 48 hrs by sulforhodamine B assay; type: functional; conditions: SK-MEL-2, 48 h
A498 = experiment: Growth inhibition of human A498 cells after 48 hrs by sulforhodamine B assay; type: functional; conditions: A498, 48 h
SNB-19 = experiment: Growth inhibition of human SNB19 cells after 48 hrs by sulforhodamine B assay; type: functional; conditions: SNB-19, 48 h
HL-60(TB) = experiment: Growth inhibition of human HL-60(TB) cells after 48 hrs by sulforhodamine B assay; type: functional; conditions: HL-60, 48 h
T47D = experiment: Growth inhibition of human T47D cells after 48 hrs by sulforhodamine B assay; type: functional
SR = experiment: Growth inhibition of human SR cells after 48 hrs by sulforhodamine B assay; type: functional
SW-620 = experiment: Growth inhibition of human SW620 cells after 48 hrs by sulforhodamine B assay; type: functional; conditions: SW-620, 48 h
[24] = Growth inhibition of human RPMI8226 cells after 48 hrs by sulforhodamine B assay; type: functional; conditions: RPMI-8226, 48 h
SK-MEL-5 = experiment: Growth inhibition of human SK-MEL-5 cells after 48 hrs by sulforhodamine B assay; type: functional; conditions: SK-MEL-5, 48 h
NCI-H522 = experiment: Growth inhibition of human NCI-H522 cells after 48 hrs by sulforhodamine B assay; type: functional; conditions: NCI-H522, 48 h
HT-29 = experiment: Growth inhibition of human HT-29 cells after 48 hrs by sulforhodamine B assay; type: functional; conditions: HT-29, 48 h
[25] = Growth inhibition of human NCI-ADR-RES cells after 48 hrs by sulforhodamine B assay; type: functional
[26] = Growth inhibition of human OVCAR8 cells after 48 hrs by sulforhodamine B assay; type: functional; conditions: OVCAR-8, 48 h
SN12C = experiment: Growth inhibition of human SN12C cells after 48 hrs by sulforhodamine B assay; type: functional
ACHN = experiment: Growth inhibition of human ACHN cells after 48 hrs by sulforhodamine B assay; type: functional
NCI-H322M = experiment: Growth inhibition of human NCI-H322M cells after 48 hrs by sulforhodamine B assay; type: functional
[27] = Growth inhibition of human SF295 cells after 48 hrs by sulforhodamine B assay; type: functional; conditions: SF-295, 48 h

COc1ccc2c(c1)OC(N)=C(C#N)C2c1cc(OC)c(OC)c(OC)c1 (racemic)
GI50 (MDA-MB-435): 15 nM
GI50 [1]: 1570 nM
GI50 [2]: 20.7 nM
GI50 [3]: 32.8 nM
GI50 (MCF7): 34.2 nM
EC (Paracentrotus lividus [4]): 0.01 µM
GI50 (786-0): 49.4 nM
GI50 [5]: 37 nM
EC (Paracentrotus lividus [6]): 0.5 µM
GI50 (MDA-MB-468): 21.6 nM
GI50 (M14): 25.5 nM
GI50 [7]: 28.1 nM
GI50 (SNB-75): 42.9 nM
GI50 [8]: 251 nM
GI50 (A549): 37.6 nM
GI50 (SF-268): 73.2 nM
GI50 [9]: 45 nM
GI50 (CCRF-CEM): 33.7 nM
GI50 (NCI-H460): 34.4 nM
GI50 (NCI-H226): 83.9 nM
EC (Paracentrotus lividus [10]): 0.05 µM
GI50 (K562): 34.3 nM
GI50 [11]: 33.5 nM
GI50 [12]: 80.8 nM
GI50 [13]: 25.8 nM
GI50 [14]: 25.9 nM
GI50 (DU-145): 25.2 nM
GI50 (IGROV-1): 42.5 nM
GI50 [15]: 30.6 nM
GI50 [16]: 49 nM
GI50 (NCI-H23): 36.5 nM
GI50 [17]: 28.2 nM
GI50 (KM12): 25.1 nM
GI50 [18]: 37.9 nM
GI50 [19]: 25 nM
GI50 (HOP-62): 62.6 nM
GI50 (CAKI-1): 146 nM
GI50 (MDA-MB-231): 38.1 nM
GI50 (SK-OV-3): 33 nM
GI50 [20]: 37.1 nM
GI50 (U-251): 26.2 nM
GI50 [21]: 42.8 nM
GI50 [22]: 45 nM
GI50 [23]: 34 nM
GI50 (SK-MEL-2): 27.6 nM
GI50 (A498): 20.9 nM
GI50 (SNB-19): 86.4 nM
GI50 (HL-60(TB)): 25.6 nM
GI50 (T47D): > 100000 nM
GI50 (SR): 27.1 nM
GI50 (SW-620): 38.8 nM
GI50 [24]: 37.9 nM
GI50 (SK-MEL-5): 24 nM
GI50 (NCI-H522): 12.3 nM
GI50 (HT-29): 27.8 nM
GI50 [25]: 19.9 nM
GI50 [26]: 34.5 nM
GI50 (SN12C): 58.7 nM
GI50 (ACHN): 76 nM
GI50 (NCI-H322M): 48 nM
GI50 [27]: 25.2 nM
